Results published in US11696917B2, “Agent enhancing antitumor effect using pyrazolo[3,4-d]pyrimidine compound” (TAIHO PHARMACEUTICAL CO., LTD., priority 2017, dated 2023).

System: NCI-N87 (human stomach cancer)
Test: Combination of Compound 1 and other antitumor agents (in vitro), CellTiter-Glo, median effect method
Assay type: cell-based
Procedure: The supplier of each reagent, the suppliers of tumor cell lines, the media used, and the numbers of cells to be inoculated are shown in the tables below.
The cells were inoculated at 20 μL/well to a 384-well culture plate (Corning Inc.). The plate inoculated with the cells were cultured in an incubator set to 37° C. and 5% CO2. On the day following inoculation, each of mixed solutions of Compound 1 and each other antitumor agent at varying combinations of concentrations was added to the cells. Specifically, 8 serial dilutions (including (0 nM)) of Compound 1 and 10 serial dilutions (including (0 nM)) of the other antitumor agent were prepared using Leibovitz's L-15 medium containing 10% FBS, or ATCC formulated RPMI-1640 medium containing 10% FBS. Drug solutions in which equal amounts of the respective serial dilutions of the compounds were dispensed were mixed at a ratio of 1:1 to prepare a total of 80 mixed drug solutions including every combination. Each of these mixed drug solutions was added at 5 μL/well (N=4) to the plate, followed by further culture for 3 days under conditions of 37° C. and 5% CO2.
Three days later, CellTiter-Glo™ 2.0 Reagent (Promega Corporation) was added thereto at 25 μL/well, and chemiluminescence was measured using a plate reader (EnSpire® Multimode Plate Reader, PerkinElmer Japan Co., Ltd.).
The enhancement of an effect by combined use of the drugs was evaluated according to a method known in the art (a method described in Trends Pharmacol. Sci., 4, 450-454, 1983 or Pharmacol Rev., 58 (3), 621-81, 2006).
An average value from 4 wells of each combination was calculated from the obtained data, and a cell survival rate normalized against a control supplemented with a medium containing a vehicle was calculated. A Fa (fraction of affect) value was calculated by subtracting the cell survival rate from 1. Median effect analysis software CalcuSyn 2.0 (CalcuSyn, Inc.) for calculation by the median effect method was used in the calculation of CI.
As for the combinations of the concentrations of both the drugs for calculating CI, a Fa value closer to 1 presumably means a concentration range in which one of the drugs had too strong an effect, and a Fa value closer to 0 presumably means a concentration range in which any of the drugs had too weak an effect. Since these concentration ranges were not appropriate for the discussion of a synergistic effect, combinations that satisfied 0.2 S Fa 0.8 were extracted from the combinations of the respective concentrations of Compound 1 and the other antitumor agent on the basis of the calculated Fa value.
An effect of combined use was determined as shown in the table below (Pharmacol Rev., 58 (3), p. 621-81, 2006).

[1] = Compound 1 3.70 nM + FdUrd 333333 nM, ratio 1:90000, NCI-N87
[2] = Compound 1 3.70 nM + Gemcitabine 1.37 nM, ratio 1:0.37, NCI-N87
[3] = Compound 1 3.70 nM + Gemcitabine 4.12 nM, ratio 1:1.1, NCI-N87
[4] = Compound 1 3.70 nM + Gemcitabine 12.3 nM, ratio 1:3.3, NCI-N87
[5] = Compound 1 3.70 nM + Gemcitabine 37.0 nM, ratio 1:10, NCI-N87
[6] = Compound 1 3.70 nM + Gemcitabine 111 nM, ratio 1:30, NCI-N87
[7] = Compound 1 3.70 nM + Gemcitabine 333 nM, ratio 1:90, NCI-N87
[8] = Compound 1 3.70 nM + Paclitaxel 1.85 nM, ratio 1:0.50, NCI-N87
[9] = Compound 1 3.70 nM + Paclitaxel 5.56 nM, ratio 1:1.5, NCI-N87
[10] = Compound 1 3.70 nM + Paclitaxel 16.7 nM, ratio 1:4.5, NCI-N87
[11] = Compound 1 3.70 nM + Trifluridine 12346 nM, ratio 1:3333, NCI-N87
[12] = Compound 1 3.70 nM + Trifluridine 37037 nM, ratio 1:10000, NCI-N87
[13] = Compound 1 3.70 nM + Trifluridine 111111 nM, ratio 1:30000, NCI-N87
[14] = Compound 1 11.1 nM + Cisplatin 687 nM, ratio 1:62, NCI-N87
[15] = Compound 1 11.1 nM + Cisplatin 2062 nM, ratio 1:186, NCI-N87
[16] = Compound 1 11.1 nM + Cisplatin 6185 nM, ratio 1:557, NCI-N87
[17] = Compound 1 11.1 nM + Cisplatin 18556 nM, ratio 1:1670, NCI-N87
[18] = Compound 1 11.1 nM + Cisplatin 55667 nM, ratio 1:5010, NCI-N87
[19] = Compound 1 11.1 nM + FdUrd 4115 nM, ratio 1:370, NCI-N87
[20] = Compound 1 11.1 nM + FdUrd 12346 nM, ratio 1:1111, NCI-N87
[21] = Compound 1 11.1 nM + FdUrd 37037 nM, ratio 1:3333, NCI-N87
[22] = Compound 1 11.1 nM + FdUrd 111111 nM, ratio 1:10000, NCI-N87
[23] = Compound 1 11.1 nM + FdUrd 333333 nM, ratio 1:30000, NCI-N87
[24] = Compound 1 11.1 nM + FdUrd 1000000 nM, ratio 1:90000, NCI-N87
[25] = Compound 1 11.1 nM + Paclitaxel 0.206 nM, ratio 1:0.019, NCI-N87
[26] = Compound 1 11.1 nM + Paclitaxel 0.617 nM, ratio 1:0.056, NCI-N87
[27] = Compound 1 11.1 nM + Paclitaxel 1.85 nM, ratio 1:0.17, NCI-N87
[28] = Compound 1 11.1 nM + Paclitaxel 5.56 nM, ratio 1:0.50, NCI-N87
[29] = Compound 1 11.1 nM + Trifluridine 4115 nM, ratio 1:370, NCI-N87
[30] = Compound 1 11.1 nM + Trifluridine 12346 nM, ratio 1:1111, NCI-N87
[31] = Compound 1 11.1 nM + Trifluridine 37037 nM, ratio 1:3333, NCI-N87
[32] = Compound 1 11.1 nM + Trifluridine 111111 nM, ratio 1:10000, NCI-N87
[33] = Compound 1 33.3 nM + Cisplatin 2062 nM, ratio I:62, NCI-N87
[34] = Compound 1 33.3 nM + FdUrd 12346 nM, ratio 1:370, NCI-N87
[35] = Compound 1 […] + Gemcitabine 4.12 nM, ratio 1:10, NCI-N87
[36] = Compound 1 […] + Gemcitabine 12.3 nM, ratio 1:30, NCI-N87
[37] = Compound 1 […] + Gemcitabine 37.0 nM, ratio 1:90, NCI-N87

## C=CC(=O)N1CCC[C@@H](n2nc(C(=O)Nc3ccc(CC(=O)N(C)C)c(C)c3C)c3c(N)ncnc32)C1 [Compound 1, (R)-1-(1-acryloylpiperidin-3-yl)-4-amino-N-(4-(2-(dimethylamino)-2-oxoethyl)-2,3-dimethylphenyl)-1H-pyrazolo[3,4-d]pyrimidine-3-carboxamide]
[1]
  CI: 0.47
  Fa: 0.62
[2]
  CI: 0.15
  Fa: 0.75
[3]
  CI: 0.12
  Fa: 0.77
[4]
  CI: 0.10
  Fa: 0.80
[5]
  CI: 0.11
  Fa: 0.78
[6]
  CI: 0.11
  Fa: 0.78
[7]
  CI: 0.12
  Fa: 0.77
[8]
  CI: 0.84
  Fa: 0.41
[9]
  CI: 0.42
  Fa: 0.64
[10]
  CI: 0.55
  Fa: 0.71
[11]
  CI: 0.51
  Fa: 0.57
[12]
  CI: 0.51
  Fa: 0.61
[13]
  CI: 0.51
  Fa: 0.67
[14]
  CI: 0.87
  Fa: 0.59
[15]
  CI: 0.71
  Fa: 0.64
[16]
  CI: 0.48
  Fa: 0.74
[17]
  CI: 0.50
  Fa: 0.77
[18]
  CI: 0.90
  Fa: 0.79
[19]
  CI: 0.79
  Fa: 0.61
[20]
  CI: 0.55
  Fa: 0.68
[21]
  CI: 0.58
  Fa: 0.67
[22]
  CI: 0.46
  Fa: 0.73
[23]
  CI: 0.52
  Fa: 0.75
[24]
  CI: 0.31
  Fa: 0.79
[25]
  CI: 0.58
  Fa: 0.69
[26]
  CI: 0.52
  Fa: 0.71
[27]
  CI: 0.61
  Fa: 0.69
[28]
  CI: 0.44
  Fa: 0.78
[29]
  CI: 0.79
  Fa: 0.69
[30]
  CI: 0.51
  Fa: 0.77
[31]
  CI: 0.63
  Fa: 0.74
[32]
  CI: 0.49
  Fa: 0.80
[33]
  CI: 0.73
  Fa: 0.80
[34]
  CI: 0.76
  Fa: 0.80
[35]
  CI: 0.21
  Fa: 0.68
[36]
  CI: 0.23
  Fa: 0.69
[37]
  CI: 0.02
  Fa: 0.71
